The record followed here is US4431636A, “Bis(4-O-polyhexaose-thio)-phenyl ureas and method of use” (American Cyanamid Company, priority 1982, dated 1984).

One test addresses activated human C1 (Homo sapiens, UniProt P09871). In words: Test Code 026 (C1 inhibitor). To be noted: in vitro; serial twofold dilution assay, higher well number higher activity. The format is biochemical. As for the experimental part: (§1) Percent inhibition is calculated by comparison with simultaneous controls.
The test system of test [1] is serum complement activity. In words: Guinea Pig Intraperitoneal Test (GPIP). It counts as in vivo. To be noted: Cavia porcellus, ip, 200 mg/kg i.p. As for the experimental part: as §1
Test [2] deals with late components of human complement (C3-C9). The test is described as follows: Test Code 035 (C3-C9 inhibitor). The format is biochemical. The conditions noted are these: in vitro; lysis of EAC 142; serial twofold dilution assay, higher well number higher activity. The method, then: as §1

Like-named read-outs stand apart in the source and are kept apart here.

activated human C1, sequence (P09871 16-688): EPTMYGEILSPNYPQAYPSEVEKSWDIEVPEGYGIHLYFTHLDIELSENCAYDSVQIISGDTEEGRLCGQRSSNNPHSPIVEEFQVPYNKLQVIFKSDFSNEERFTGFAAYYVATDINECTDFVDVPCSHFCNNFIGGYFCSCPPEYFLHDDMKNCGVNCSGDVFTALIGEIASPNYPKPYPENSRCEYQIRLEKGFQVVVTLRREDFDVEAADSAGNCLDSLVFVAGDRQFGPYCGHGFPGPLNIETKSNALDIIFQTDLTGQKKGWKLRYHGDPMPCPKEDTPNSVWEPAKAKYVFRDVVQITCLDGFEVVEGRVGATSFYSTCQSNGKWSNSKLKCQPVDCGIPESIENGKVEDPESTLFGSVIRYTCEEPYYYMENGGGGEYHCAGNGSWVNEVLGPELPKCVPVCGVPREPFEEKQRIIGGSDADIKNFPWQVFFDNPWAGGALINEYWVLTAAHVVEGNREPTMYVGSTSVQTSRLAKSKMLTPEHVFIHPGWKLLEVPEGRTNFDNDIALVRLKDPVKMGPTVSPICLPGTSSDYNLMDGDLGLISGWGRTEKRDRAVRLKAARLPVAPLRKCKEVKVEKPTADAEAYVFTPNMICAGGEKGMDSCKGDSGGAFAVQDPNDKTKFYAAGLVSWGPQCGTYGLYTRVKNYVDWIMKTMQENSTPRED
activated human C1, sequence (P00736 18-705 partner): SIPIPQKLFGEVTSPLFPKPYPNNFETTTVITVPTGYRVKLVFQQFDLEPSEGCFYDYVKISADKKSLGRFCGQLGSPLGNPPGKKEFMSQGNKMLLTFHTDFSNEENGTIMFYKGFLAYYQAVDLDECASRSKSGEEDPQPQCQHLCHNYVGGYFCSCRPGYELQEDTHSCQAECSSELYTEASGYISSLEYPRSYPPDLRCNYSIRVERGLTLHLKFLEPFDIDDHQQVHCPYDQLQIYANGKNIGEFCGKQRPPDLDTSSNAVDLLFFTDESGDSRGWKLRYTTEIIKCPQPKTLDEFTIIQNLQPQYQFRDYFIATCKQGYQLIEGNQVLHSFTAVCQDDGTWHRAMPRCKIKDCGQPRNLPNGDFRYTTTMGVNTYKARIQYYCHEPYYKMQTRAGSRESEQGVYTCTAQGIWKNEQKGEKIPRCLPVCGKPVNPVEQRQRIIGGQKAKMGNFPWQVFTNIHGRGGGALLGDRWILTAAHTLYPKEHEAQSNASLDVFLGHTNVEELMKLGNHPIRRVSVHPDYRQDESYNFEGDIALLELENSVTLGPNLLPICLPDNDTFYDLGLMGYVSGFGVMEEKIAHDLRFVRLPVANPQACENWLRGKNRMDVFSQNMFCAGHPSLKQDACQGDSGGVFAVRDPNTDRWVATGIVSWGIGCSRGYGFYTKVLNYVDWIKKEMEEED
activated human C1, sequence (P02745 23-245 partner): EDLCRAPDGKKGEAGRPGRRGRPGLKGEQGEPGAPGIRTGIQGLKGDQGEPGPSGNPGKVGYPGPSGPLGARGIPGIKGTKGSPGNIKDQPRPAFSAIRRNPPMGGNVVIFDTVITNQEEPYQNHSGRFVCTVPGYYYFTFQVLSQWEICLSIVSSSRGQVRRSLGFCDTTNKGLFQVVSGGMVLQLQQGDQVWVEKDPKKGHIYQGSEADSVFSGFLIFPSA
activated human C1, sequence (P02746 28-253 partner): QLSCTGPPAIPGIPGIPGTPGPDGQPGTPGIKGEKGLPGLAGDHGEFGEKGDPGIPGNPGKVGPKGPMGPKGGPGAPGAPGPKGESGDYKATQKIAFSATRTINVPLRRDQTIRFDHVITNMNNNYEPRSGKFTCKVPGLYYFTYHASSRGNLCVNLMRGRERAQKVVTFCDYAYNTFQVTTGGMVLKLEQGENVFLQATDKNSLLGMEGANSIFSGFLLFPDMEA
activated human C1, sequence (P02747 29-245 partner): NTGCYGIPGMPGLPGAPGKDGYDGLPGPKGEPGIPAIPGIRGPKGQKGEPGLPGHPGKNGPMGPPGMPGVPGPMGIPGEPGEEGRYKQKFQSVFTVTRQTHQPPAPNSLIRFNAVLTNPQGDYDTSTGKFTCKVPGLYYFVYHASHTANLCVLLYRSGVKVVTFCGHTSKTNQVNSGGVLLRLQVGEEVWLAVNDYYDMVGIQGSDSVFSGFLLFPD

As to `O=C(Nc1ccc(S[C@@H]2O[C@H](COS(=O)(=O)O)[C@@H](O[C@H]3O[C@H](COS(=O)(=O)O)[C@@H](OS(=O)(=O)O)[C@H](OS(=O)(=O)O)[C@H]3OS(=O)(=O)O)[C@H](OS(=O)(=O)O)[C@H]2OS(=O)(=O)O)cc1)Nc1ccc(S[C@@H]2O[C@H](COS(=O)(=O)O)[C@@H](O[C@H]3O[C@H](COS(=O)(=O)O)[C@@H](OS(=O)(=O)O)[C@H](OS(=O)(=O)O)[C@H]3OS(=O)(=O)O)[C@H](OS(=O)(=O)O)[C@H]2OS(=O)(=O)O)cc1.[Na].[Na].[Na].[Na].[Na].[Na].[Na].[Na].[Na].[Na].[Na].[Na].[Na].[Na]` [Tetradecasodium N,N'-bis[4-[[2,3,6-tri-O-sulfo-4-O-(2,3,4,6-tetra-O-sulfo-α-D-glucopyranosyl)-β-D-glucopyranosyl]thio]phenyl]urea], at activated human C1, the “C-1 026 Wells” value came to 11 Wells. In addition, the inhibition at 200 mg/kg is 90% in test [1] (serum taken 2 hours after injection, read-out: In vivo Activity (Guinea Pig % Inhibition) (Intraperitoneal) Time 2 Hours); 91% in test [1] (serum taken 6 hours after injection, read-out: In vivo Activity (Guinea Pig % Inhibition) (Intraperitoneal) Time 6 Hours); 58% in test [1] (serum taken 24 hours after injection, read-out: In vivo Activity (Guinea Pig % Inhibition) (Intraperitoneal) Time 24 Hours). Moreover, the “C-Late 035 Wells” value in test [2] is given as 2 Wells.
